target: glucocorticoid receptor (GAL4 DBD-GR) (Homo sapiens (Human), UniProt P04150); assay: GR cell-based assays (GRE agonist / GRE antagonist), CHO-Gal4/GR luciferase reporter; conditions: read-out: IC50 or EC50
Description: Potential selective glucocorticoid receptor modulators of this intervention can be tested for modulation of the activity of the glucocorticoid receptor using cell-based assays. These assays involve a Chinese hamster ovary (CHO) cell line which contains fragments of the glucocorticoid receptor as well as fusion proteins. The glucocorticoid receptor fragments used are capable of binding the ligand (e.g. beclomethasone) to identify molecules that compete for binding with glucocorticoid receptor ligands. In more detail, the glucocorticoid receptor ligand binding domain is fused to the DNA binding domain (DBD) of the transcription factor GAL4 (GAL4 DBD-GR) and is stably integrated into a CHO cell line containing a GAL4-UAS-Luciferase reporter construct. […] After cell lysis the luminescence that is produced by luciferase after addition of the substrate is detected and EC50 or IC50 values can be calcuated. Engagement of molecules which induce gene expression via glucocortocoid receptor binding to the DNA leads to expression of the luciferase gene under the control of the fusion protein GAL4 DBD-GR and therefore to a dose-dependent increase of the luminescence signal. Binding of molecules which repress beclomethasone-induced gene expression of the luciferase gene under the control of the fusion protein GAL4 DBD-GR leads to a dose-dependent reduction of the luminescence signal.
The reporter cell line CHO-Gal4/GR consisted of a chinese hamster ovary (CHO) cell line (Leibniz Institute DSMZ—German Collection of Microorganisms and Cell Cultures GmbH: ACC-110) containing a firefly luciferase gene under the control of the GR ligand binding domain fused to the DNA binding domain (DBD) of GAL4 (GAL4 DBD-GR) stably integrated into CHO cells. This cell line was established by stable transfection of CHO cells with a GAL4-UAS-Luciferase reporter construct. In a subsequent step the ligand binding domain of the GR cloned into pIRES2-EGFP-GAL4 containing the DNA binding domain of GAL4 from pFA-AT2 was transfected. This fusion construct activated firefly luciferase expression under the control of a multimerized GAL4 upstream activation sequence (UAS). The signal of the emitted luminescence was recorded by the FLIPR^TETRA. This allowed for specific detection of ligand-induced activation of the GR and therefore for the identification of compounds with agonistic properties. The GAL4/UAS reporter was premixed with a vector that constitutively expressed Renilla luciferase, which served as an internal positive control for transfection efficiency.
The complete culture medium for the assay was: • DMEM F-12 (1:1) MIXTURE (LONZA cat. No: BE04-687F/U1) 500 mL • 5 mL of 100 mM Sodium Pyruvate (LONZA cat. No: BE12-115E) • 25 mL of 7.5% Sodium Bicarbonate (LONZA cat. No BE17-613E) • 6.5 mL of 1 M Hepes (LONZA cat. No: BE17-737E) • 5 mL of 100× Penicillin/Streptomycin (LONZA cat. No DE17-602E) • 50 mL of Fetal Bovine Serum (Euroclone cat. No ECS 0180L) • 0.25 mL of 10 mg/mL Puromycin (InvivoGen cat.: ant-pr-1) • 0.5 mL of 100 mg/mL Zeocin (InvivoGen cat.: ant-zn-1)
Cryo-preserved CHO-Gal4/GR cells were suspended in complete medium and 5000 cells/25 μl/well were seeded into the wells of 384-well polystyrene assay plates (Thermo Scientific, cat. #4332) and cultured at 37° C., 5% CO2 and 95% humidity. After 24 hours growth medium was carefully removed and replaced by 30 μl Opti-MEM (GIBCO, cat. #31985062) as assay buffer. To test the compounds an 8-point half-log compound dilution curve was generated in 100% DMSO starting from a 2 mM stock and compounds were then diluted 1:50 in Opti-MEM. 10 μl of compounds were then added to the wells containing 30 μl Opti-MEM resulting in a final assay concentration range from 10 μM to 0.003 μM in 0.5% DMSO. Compounds were tested at 8 concentrations in quadruplicate data points. […] Finally, cells were lysed with 20 μl of Triton/Luciferin solution and the signal of the emitted luminescence was recorded at the FLIPR^TETRA for 2 minutes. […]

Chain of glucocorticoid receptor (GAL4 DBD-GR) (P04150 524-758): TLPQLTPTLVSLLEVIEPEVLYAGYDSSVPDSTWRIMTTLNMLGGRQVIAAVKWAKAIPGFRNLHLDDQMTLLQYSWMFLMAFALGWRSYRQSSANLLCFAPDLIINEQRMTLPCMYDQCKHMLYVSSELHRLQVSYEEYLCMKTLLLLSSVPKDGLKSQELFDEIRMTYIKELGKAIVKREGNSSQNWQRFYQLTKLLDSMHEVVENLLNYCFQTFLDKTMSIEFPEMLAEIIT

| Compound | IC50 [nM] |
| --- | --- |
| Cc1cccc([C@@H]2[C@@H](NC(=O)c3ccn(C)n3)[C@H](C)C(=O)N2c2ccc3c(cnn3-c3ccc(F)cc3)c2)c1 (racemic) [Example 75, N-[rac-(2R,3S,4S)-1-[1-(4-Fluorophenyl)-1H-indazol-5-yl]-4-methyl-2-m-tolyl-5-oxo-pyrrolidin-3-yl]-1-methyl-1H-pyrazole-3-carboxylic acid amide] | < 100 |
| Cc1cccc([C@@H]2[C@@H](NS(C)(=O)=O)[C@@H](C)C(=O)N2c2ccc3c(cnn3-c3ccc(F)cc3)c2)c1 (racemic) [Example 76, N-[rac-(2R,3S,4R)-1-[1-(4-Fluorophenyl)-1H-indazol-5-yl]-4-methyl-2-m-tolyl-5-oxo-pyrrolidin-3-yl]-methanesulfonic acid amide] | < 100 |
| Cc1cccc([C@@H]2[C@@H](NC(=O)C(C)(F)F)[C@@H](C)C(=O)N2c2ccc3c(cnn3-c3ccc(F)cc3)c2)c1 (racemic) [Example 77, 2,2-Difluoro-N-[rac-(2R,3S,4R)-1-[1-(4-fluorophenyl)-1H-indazol-5-yl]-4-methyl-2-m-tolyl-5-oxo-pyrrolidin-3-yl]-propionamide] | < 100 |
| COc1ccc([C@@H]2[C@@H](NC(=O)c3scnc3C)[C@H](C)C(=O)N2c2ccc3c(cnn3-c3ccc(F)cc3)c2)cc1 (racemic) [Example 82, N-[rac-(2R,3S,4S)-1-[1-(4-Fluorophenyl)-1H-indazol-5-yl]-2-(4-methoxyphenyl)-4-methyl-5-oxo-pyrrolidin-3-yl]-4-methyl-thiazole-5-carboxylic acid amide] | 100 to 1000 |
| COc1ccc([C@@H]2[C@@H](NC(=O)c3ccn(C)n3)[C@H](C)C(=O)N2c2ccc3c(cnn3-c3ccc(F)cc3)c2)cc1 (racemic) [Example 83, N-[rac-(2R,3S,4S)-1-[1-(4-Fluorophenyl)-1H-indazol-5-yl]-2-(4-methoxyphenyl)-4-methyl-5-oxo-pyrrolidin-3-yl]-1-methyl-1H-pyrazole-3-carboxylic acid amide] | < 100 |
| COc1ccc([C@@H]2[C@@H](NC(=O)c3cccnc3)[C@H](C)C(=O)N2c2ccc3c(cnn3-c3ccc(F)cc3)c2)cc1 (racemic) [Example 84, N-[rac-(2R,3S,4S)-1-[1-(4-Fluorophenyl)-1H-indazol-5-yl]-2-(4-methoxyphenyl)-4-methyl-5-oxo-pyrrolidin-3-yl]-pyridine-3-carboxylic acid amide] | 100 to 1000 |
| COc1ccc([C@@H]2[C@@H](NC(=O)c3ncccn3)[C@H](C)C(=O)N2c2ccc3c(cnn3-c3ccc(F)cc3)c2)cc1 (racemic) [Example 85, N-[rac-(2R,3S,4S)-1-[1-(4-Fluorophenyl)-1H-indazol-5-yl]-2-(4-methoxyphenyl)-4-methyl-5-oxo-pyrrolidin-3-yl]-pyrimidine-2-carboxylic acid amide] | 100 to 1000 |
| C[C@H]1C(=O)N(c2ccc3c(cnn3-c3ccc(F)cc3)c2)[C@H](c2ccccc2Cl)[C@H]1NS(C)(=O)=O (racemic) [Example 86, N-[rac-(2R,3S,4R)-2-(2-Chlorophenyl)-1-[1-(4-fluorophenyl)-1H-indazol-5-yl]-4-methyl-5-oxo-pyrrolidin-3-yl]-methanesulfonic acid amide] | < 100 |
| C[C@H]1C(=O)N(c2ccc3c(cnn3-c3ccc(F)cc3)c2)[C@H](c2ccccc2Cl)[C@H]1NC(=O)c1cccnc1 (racemic) [Example 87, N-[rac-(2R,3S,4R)-2-(2-Chlorophenyl)-1-[1-(4-fluorophenyl)-1H-indazol-5-yl]-4-methyl-5-oxo-pyrrolidin-3-yl]-pyridine-3-carboxylic acid amide] | < 100 |
| C[C@H]1C(=O)N(c2ccc3c(cnn3-c3ccc(F)cc3)c2)[C@H](c2ccccc2Cl)[C@H]1NC(=O)c1ncccn1 (racemic) [Example 88, N-[rac-(2R,3S,4R)-2-(2-Chlorophenyl)-1-[1-(4-fluorophenyl)-1H-indazol-5-yl]-4-methyl-5-oxo-pyrrolidin-3-yl]-pyrimidine-2-carboxylic acid amide] | < 100 |
| CC[C@@H]1[C@@H](NC(=O)c2ncccn2)[C@H](Cc2ccccc2)C(=O)N1c1ccc2c(cnn2-c2ccc(F)cc2)c1 (racemic) [Example 90, N-[rac-(2R,3S,4S)-4-Benzyl-2-ethyl-1-[1-(4-fluorophenyl)-1H-indazol-5-yl]-5-oxo-pyrrolidin-3-yl]-pyrimidine-2-carboxylic acid amide] | 1000 to 15000 |
| CC[C@@H]1[C@@H](NS(C)(=O)=O)[C@H](Cc2ccccc2)C(=O)N1c1ccc2c(cnn2-c2ccc(F)cc2)c1 (racemic) [Example 91, N-[rac-(2R,3S,4S)-4-Benzyl-2-ethyl-1-[1-(4-fluorophenyl)-1H-indazol-5-yl]-5-oxo-pyrrolidin-3-yl]-methanesulfonic acid amide] | 1000 to 15000 |
| C[C@@H]1C(=O)N(c2ccc3c(cnn3-c3ccc(F)cc3)c2)[C@H](c2ccccc2Cl)[C@H]1NC(=O)c1cccnc1 (racemic) [Example 92, N-[rac-(2R,3S,4S)-2-(2-Chlorophenyl)-1-[1-(4-fluorophenyl)-1H-indazol-5-yl]-4-methyl-5-oxo-pyrrolidin-3-yl]-pyridine-3-carboxylic acid amide] | < 100 |
| C[C@@H]1C(=O)N(c2ccc3c(cnn3-c3ccc(F)cc3)c2)[C@H](c2ccccc2Cl)[C@H]1NS(C)(=O)=O (racemic) [Example 93, N-[rac-(2R,3S,4S)-2-(2-Chlorophenyl)-1-[1-(4-fluorophenyl)-1H-indazol-5-yl]-4-methyl-5-oxo-pyrrolidin-3-yl]-methanesulfonic acid amide] | < 100 |
| CC1C(=O)N(c2ccc3c(cnn3-c3ccc(F)cc3)c2)C(c2ccccc2Cl)C1NC(=O)c1ccn(C)n1 (racemic) [Example 94, N-[rac-(2R,3S,4R)-2-(2-Chlorophenyl)-1-[1-(4-fluorophenyl)-1H-indazol-5-yl]-4-methyl-5-oxo-pyrrolidin-3-yl]-1-methyl-1H-pyrazole-3-carboxylic acid amide] | < 100 |
| COc1ccc([C@@H]2[C@@H](NC(=O)C(C)(F)F)[C@H](C)C(=O)N2c2ccc3c(cnn3-c3ccc(F)cc3)c2)cc1 (racemic) [Example 98, 2,2-Difluoro-N-[rac-(2R,3S,4S)-1-[1-(4-fluorophenyl)-1H-indazol-5-yl]-2-(4-methoxyphenyl)-4-methyl-5-oxo-pyrrolidin-3-yl]-propionamide] | < 100 |
| CC(F)(F)C(=O)N[C@H]1CC(=O)N(c2ccc3c(cnn3-c3ccc(F)cc3)c2)[C@]1(C)c1ccccc1 (racemic) [Example 100, 2,2-Difluoro-N-[rac-(2R,3S)-1-[1-(4-fluorophenyl)-1H-indazol-5-yl]-2-methyl-5-oxo-2-phenyl-pyrrolidin-3-yl]-propionamide] | < 100 |
| C[C@@]1(c2ccccc2)[C@@H](NC(=O)C2CC2)CC(=O)N1c1ccc2c(cnn2-c2ccc(F)cc2)c1 (racemic) [Example 101, N-[rac-(2R,3S)-1-[1-(4-Fluorophenyl)-1H-indazol-5-yl]-2-methyl-5-oxo-2-phenyl-pyrrolidin-3-yl]-cyclopropanecarboxylic acid amide] | 100 to 1000 |
| CC[C@@H]1[C@@H](NC(=O)c2ccn(C)n2)[C@H](Cc2ccccc2)C(=O)N1c1ccc2c(cnn2-c2ccc(F)cc2)c1 (racemic) [Example 104, N-[rac-(2R,3S,4S)-4-Benzyl-2-ethyl-1-[1-(4-fluorophenyl)-1H-indazol-5-yl]-5-oxo-pyrrolidin-3-yl]-1-methyl-1H-pyrazole-3-carboxylic acid amide] | 1000 to 15000 |
